“Also recorded” adds a separate entry of the source. Read-outs that look alike come from different tables or passages of the source.
How the values were obtained:
[1] = system: mTOR; assay: mTOR inhibition (RPS6 phosphorylation status), In-Cell Western; type: cell-based, human
Procedure, shortened: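 WI-38 cells exposed to compounds at 5, 10 and 20 μM for 24 hrs. Fixed cells co-stained overnight at 4° C with anti-RPS and anti-pRPS6 (Ser-235/236) antibodies, then DyLight 680/800 secondaries. Phospho-RPS6 relative to total RPS6 read by near-infrared In-Cell Western imaging.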

[2] = system: C. elegans; type: in vivo, Caenorhabditis elegans
Description: The worms were treated with the small molecules in liquid, with H2O2 (500 μM final concentration) added on day 4 of adulthood, and scored for viability everyday
FUdR was used to block progeny production. The molecules were analyzed in 96-well plates, with 4 wells for each small molecule. Multiple control wells with DMSO (0.2% final concentration) were included. […] Day 1 adults were transferred onto mini-plates, seeded with OP50 bacteria (UV-irradiated, kanamycin-treated) and supplemented with small molecules (˜60 μM final concentration, 0.2% DMSO). Worms were scored every other day. Cumulative survival was analyzed using the STATA software (log-rank test). […] The worms were treated with the small molecules in liquid, with H2O2 (500 μM final concentration) added on day 4 of adulthood, and scored for viability every day.

[3] = system: LC3A/B puncta; assay: Autophagy induction analysis (LC3A/B puncta immuno-staining); type: cell-based, human; conditions: for Assay 15: Potential autophagy induction by LC3A/B puncta assays: 10 uM & 20 uM, YES/NO; for Exp. 2, induction of LC3A/B puncta (Up), overlapped signals normalized by total number of nuclei in the fields / Exp. 2, normalized change of nuclei numbers (Less cells): 20X objective, lysosomal LAMP co-staining
Description: Immuno-staining of LC3A/B was performed, following a standard protocol. Briefly, WI-38 cells were treated with small molecules for 24 hrs, and then processed and incubated with primary antibody (Cell Signaling, rabbit anti-LC3A/B, 1:100) overnight at 4° C. Next day, samples were processed and incubated with fluorophore-conjugated secondary antibody and further incubated with DAPI dye. Images were collected on the INCell Analyzer 2000 (Experiment 1: 10× objective; Experiment 2: 20× objective) and analyzed with the Developer Toolbox. For Experiment 2, lysosomal-associated membrane protein 2 (LAMP2) was also counter-stained to identify the LC3A/B puncta that colocalize with lysosome and the data were analyzed by the MetaXpress software (Molecular Devices, version 5.1). The intensity of total (Exp. 1) or LAMP2-colocalized LC3A/B puncta (Exp. 2) was normalized the total numbers nuclei in the fields.
These assays were performed, following the same procedures to analyze DNA-damage markers. WI-38 cells were incubated with small molecules for 24 hrs, and then processed and incubated with primary antibody (rabbit anti-LC3A/B, 1:100) overnight at 4 C. The next day, samples were processed and incubated with fluorophore-conjugated secondary antibody and further incubated with DAPI dye. Images were collected on an INCell Analyzer 2000 and analyzed with the Developer software. Total LC3A/B puncta intensity was normalized the total numbers of DAPI-positive nuclei.

[4] = Summary score for characterization of 38 core set hits; conditions: for D = Triple resistant: 2-point score, multiplex resistance (cadmium, MMS, H2O2); for C = H2O2- & Cd-resistant: score, resistance to both H2O2 and cadmium
Description: 38 “core set” small molecules are listed and are assigned a score, based on the result for each individual characterization. From our small molecule screen for H2O2-resistance, we isolated 61 top hits. […] Specifically, a 2-point score was assigned to the most well-known and prominent longevity-related phenotypes, such as multiplex resistance, activation of FOXO3 and/or NRF2, and down-regulation of mTOR. Small molecules were also analyzed for their ability to extend C. elegans' lifespan in 4 to 6 independent trials, and the lifespan score scale is from 0 to 2: 0 for no obvious effects, 1 for lifespan extension observed in 2 trials, 2 for observed in more than 2 trials. Certain molecules appeared to have DNA-damaging effects and/or potential cell-toxicity in cultured human cells, and they receive a negative point.

[5] = Exp. 1, 10 μM, 10X objective, WI-38 cells

Row | Compound | G = mTOR down-regulation ([1]; 2-point score) | G = mTOR down-regulation ([1]; summary score) | H2O2-resistance assay, 1st experiment ([2]; in vivo) | L = H2O2-resistance in worms ([2]; in vivo) | N = H2O2-resistance in woms ([2]; in vivo) | H = Potential Autophagy Induction ([3]; score) | H = Potential Autophagy Induction ([3]; summary score) | D = Triple resistant [4] | S = Sum of Negative scores ([4]; human) | C = H2O2- & Cd-resistant [4] | also measured
1 | CC1C(=O)C(C)C(c2cc(Cl)ccc2O)NC1c1cc(Cl)ccc1O (stereo not shown) [O6] | 0 | 0 | YES; | 0 | 0 | 0 | 0 | 0 | 0 | 1 | 
2 | O=C(Nc1nc(C23CC4CC(CC(C4)C2)C3)cs1)C(c1ccccc1)c1ccccc1 [O10] | 0 | 0 |  | 0 | 0 | 0 | 0 | 0 | 0 | 1 | 
3 | COc1cc2c(no[n+]2[O-])n2nnnc12 [O11] | 0 | 0 |  |  |  | 1 | 1 | 0 |  | 1 | H2O2-resistance assay, 1st experiment ([2]; 60 μM, in liquid, wild type, with FuDR): YES;; N = H2O2-resistance in woms ([2]; score): 0; L = H2O2-resistance in worms ([2]; summary score): 0; Assay 15: Potential autophagy induction by LC3A/B puncta assays [3]: YES; Exp. 1, induction of LC3A/B puncta (Up), total intensity normalized by total number of nuclei in the fields [3, 5]: p < 0.01; Up, 315%,; Exp. 1, normalized change of nuclei numbers (Less cells) [3, 5]: Less cells, 64%,; Exp. 2, induction of LC3A/B puncta (Up), overlapped signals normalized by total number of nuclei in the fields ([3]; Exp. 2, 10 μM, WI-38 cells): p < 0.001; Up, 193%,; Exp. 2, normalized change of nuclei numbers (Less cells) ([3]; Exp. 2, 10 μM, WI-38 cells): Less cells, 71%,; Exp. 2, induction of LC3A/B puncta (Up), overlapped signals normalized by total number of nuclei in the fields ([3]; Exp. 2, 20 μM, WI-38 cells): p < 0.001; Up, 159%,; Exp. 2, normalized change of nuclei numbers (Less cells) ([3]; Exp. 2, 20 μM, WI-38 cells): Less cells, 69%,; S = Sum of Negative scores ([4]; sum of columns Q and R): 1
4 | CCCC(=O)Nc1ccc(-c2cn3cccc(C)c3n2)cc1 [O12] | 0 | 0 | YES; | 0 | 0 | 0 | 0 | 0 | 0 | 1 | 
5 | O=C(c1ccc([N+](=O)[O-])o1)N1CCc2ccccc21 [O13] | 0 | 0 | YES; | 0 | 0 | 0 | 0 | 0 | 0 | 0 | 
6 | Oc1ncnc2sc3c(c12)CCC3 [O14] | 0 | 0 |  | 0 | 0 | 0 | 0 | 0 | 0 | 1 | 
7 | CCCN1C/C(=C\c2ccc(F)cc2)C(=O)/C(=C/c2ccc(F)cc2)C1 [O15] | 0 | 0 | YES; | 1 | 1 | 0 | 0 | 0 | 0 | 0 | H2O2-resistance assay, 2nd experiment ([2]; in vivo): YES.; Protection of C. elegans from hydrogen peroxide ([2]; in vivo): protected worms from hydrogen peroxide; also recorded: protected C. elegans from hydrogen peroxide; also recorded: could protect C. elegans from hydrogen peroxide
8 | [O-][n+]1onc2c3nsnc3c(Br)cc21 [O17] | 0 | 0 | YES; | 1 | 1 | 0 | 0 | 0 | 0 | 0 | H2O2-resistance assay, 2nd experiment ([2]; in vivo): YES.; Protection of C. elegans from hydrogen peroxide ([2]; in vivo): could protect C. elegans from hydrogen peroxide
9 | Cc1cc(C)c(C(=O)/C=C/c2ccccc2F)c(O)n1 [O18] | 0 | 0 |  | 0 | 0 | 0 | 0 | 0 | 0 | 0 | 
10 | COC(=O)CCc1sc2c(c1[N+](=O)[O-])NC(=O)CCC2 [O20] | 0 | 0 |  | 0 | 0 | 0 | 0 | 0 | 0 | 1 | 
11 | COc1ccc(/C=C2\SC(=N)N(c3nccs3)C2=O)cc1 [O21] | 0 | 0 |  | 0 | 0 | 0 | 0 | 0 | 2 | 0 | 
12 | CC(C)(C)c1ccc(OCC(=O)Nc2ccc3c4c(cccc24)C(=O)NC3=O)cc1 [O22] | 0 | 0 |  | 0 | 0 | 0 | 0 | 2 | 0 | 1 | 
13 | COc1cccc(/C=C2\CN(C)C/C(=C\c3cccc(OC)c3OC)C2=O)c1OC [O23] | 0 | 0 | YES; | 0 | 0 | 1 | 1 | 0 | 1 | 0 | Assay 15: Potential autophagy induction by LC3A/B puncta assays [3]: YES

Reference: patent US11413278B2, “Compounds and methods for promoting stress resistance” (priority 2015, dated 2022)
